From US9834544B2, “Sweet flavor modifier” (SENOMYX, INC., priority 2011, dated 2017)

Molecular target: T1, hT1R2/R3 (Homo sapiens, UniProt Q7RTX0+Q8TE23)
T1 construct: expressed in transfected cells; host or cells: 'hT1R2/R3-mammalian Gal5 cells'
T1 sequence (Q8TE23 20-839): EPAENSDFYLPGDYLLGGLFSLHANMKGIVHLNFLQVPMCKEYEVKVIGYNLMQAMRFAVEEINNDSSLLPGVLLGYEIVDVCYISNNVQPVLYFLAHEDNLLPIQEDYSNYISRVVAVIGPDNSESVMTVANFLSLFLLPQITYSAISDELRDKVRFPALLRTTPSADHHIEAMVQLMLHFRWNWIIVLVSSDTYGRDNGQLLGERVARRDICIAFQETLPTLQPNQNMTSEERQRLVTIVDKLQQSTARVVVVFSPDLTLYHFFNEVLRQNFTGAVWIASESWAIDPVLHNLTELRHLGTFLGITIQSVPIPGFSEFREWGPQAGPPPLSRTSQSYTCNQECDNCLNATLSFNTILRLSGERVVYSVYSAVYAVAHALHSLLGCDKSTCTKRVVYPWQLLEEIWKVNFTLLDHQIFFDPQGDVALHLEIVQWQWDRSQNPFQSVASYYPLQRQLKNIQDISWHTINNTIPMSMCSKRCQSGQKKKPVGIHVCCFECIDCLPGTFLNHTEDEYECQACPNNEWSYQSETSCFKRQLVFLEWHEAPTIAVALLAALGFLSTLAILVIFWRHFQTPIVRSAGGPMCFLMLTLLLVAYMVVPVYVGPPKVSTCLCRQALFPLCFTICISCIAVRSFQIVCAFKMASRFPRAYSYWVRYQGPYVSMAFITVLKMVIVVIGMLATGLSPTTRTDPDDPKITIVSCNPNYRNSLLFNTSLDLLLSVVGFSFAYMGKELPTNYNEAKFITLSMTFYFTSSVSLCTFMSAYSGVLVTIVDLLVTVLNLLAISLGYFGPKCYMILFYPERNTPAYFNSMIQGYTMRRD
T1 sequence (Q7RTX0 21-852): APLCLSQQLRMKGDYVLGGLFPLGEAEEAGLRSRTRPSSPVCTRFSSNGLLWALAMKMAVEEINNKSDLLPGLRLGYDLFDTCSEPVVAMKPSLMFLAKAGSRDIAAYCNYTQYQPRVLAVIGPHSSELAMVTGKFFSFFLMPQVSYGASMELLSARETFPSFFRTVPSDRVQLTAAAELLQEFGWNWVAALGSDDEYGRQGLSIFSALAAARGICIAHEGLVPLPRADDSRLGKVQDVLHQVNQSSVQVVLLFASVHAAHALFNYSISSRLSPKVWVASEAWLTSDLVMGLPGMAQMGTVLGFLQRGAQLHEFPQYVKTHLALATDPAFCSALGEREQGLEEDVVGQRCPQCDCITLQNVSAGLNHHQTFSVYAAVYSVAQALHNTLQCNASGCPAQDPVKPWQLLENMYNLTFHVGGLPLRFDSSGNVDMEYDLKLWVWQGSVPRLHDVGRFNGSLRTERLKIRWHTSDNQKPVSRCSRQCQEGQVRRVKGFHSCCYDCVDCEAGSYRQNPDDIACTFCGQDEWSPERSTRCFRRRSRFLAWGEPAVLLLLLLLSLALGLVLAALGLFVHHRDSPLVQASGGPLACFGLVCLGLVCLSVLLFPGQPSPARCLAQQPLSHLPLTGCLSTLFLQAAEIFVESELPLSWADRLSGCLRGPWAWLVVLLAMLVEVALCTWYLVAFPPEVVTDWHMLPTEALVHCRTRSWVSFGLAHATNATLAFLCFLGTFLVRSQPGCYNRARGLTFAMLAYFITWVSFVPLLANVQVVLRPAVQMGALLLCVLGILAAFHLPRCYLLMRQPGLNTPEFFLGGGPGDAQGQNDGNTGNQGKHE
Test: Screening for sweet enhancers: FLIPR calcium assay in hT1R2/R3-mammalian Gal5 cells, leftward shift of sweetener EC50
Assay type: cell-based
Conditions: compound at 10 μM; sweetener sucralose
Experimental: hT1R2/R3-mammalian Gal5 cells were seeded in 384-well-clear bottom plates (Fisher) at a density of ˜32,000 cells/well and grown overnight. On the day of the experiment, hT1R2/R3-mammalian Gal5 were loaded with the calcium indicator Fluo3AM ([…]) (Invitrogen, Carlsbad, Calif.) in D-PBS (Invitrogen, Carlsbad, Calif.) using a Multidrop. Cells were incubated for 1 hour at room temperature and excess dye was washed out with D-PBS using an EMBLA cell washer (Molecular Devices, Sunnyvale, Calif.), leaving a residual volume of […]. Sweeteners and test compounds were prepared at 4× final concentration and mixed 1:1 in a 384-well Greiner plate (bringing the sweeteners and test compounds concentrations down to 2× final concentration). After 30 minutes of rest time at room temperature, Fluo3AM-loaded cell plates, and the sweetener/compound plate mixture were loaded into a Fluorometric Imaging Plate Reader (FLIPR) (Molecular Devices, Sunnyvale, Calif.). Imaging was performed using a 480 nm excitation and a 535 emission and was initiated with the acquisition of the baseline fluorescence for a period of 7 seconds. Then, the cells were stimulated on line with addition of […] stimuli/well. Subsequent images were acquired every other second for a period of 2 minutes. Raw fluorescence counts were then normalized in each well (using custom made data import software) by calculating delta F/f values (maximum fluorescent count obtained after stimulation−minimal fluorescent count obtained before stimulation/minimal fluorescent count obtained before stimulation). EC50s were determined using a non-linear regression algorithm (GraphPad PRISM, San Diego, Calif.), where the Hill slope, bottom asymptotes and top asymptotes were allow to vary. Enhancement properties of test compounds were quantified by determining the magnitude of the leftward shift in the sweeteners EC50 values (or an EC50 ratio): the value of the EC50 measured in the absence of the enhancer divided by the value of the EC50 measured in the presence of the enhancer).
The present compounds have been tested and shown sweet taste enhancing activities for sucrose, sucralose, and/or fructose as shown in Table E (EC50 ratio for sucrose at about 10 μM), Table F (EC50 ratio for sucralose at about 10 μM), and Table H (EC50 ratio for fructose at about 50 µM). […] The compounds listed in Tables E, F and H are Examples described above. For example, Compound C6 listed in Tables E and F is Example 18 described above.

Row | SMILES | EC50 Ratio, Sucralose Enhancement
1 | Cc1nc2cccc(OCC(C)(C)NC(=O)CC(C)C)c2c(N)c1C(=O)O [Compound O5] | 4.3
2 | Cc1nc2cccc(OCC(C)(C)C(=O)NCC(C)C)c2c(N)c1C(=O)O [Compound C6, 4-amino-5-(3-(isobutylamino)-2,2-dimethyl-3-oxopropoxy)-2-methylquino-line-3-carboxylic acid] | 3.8

Same assay, conditions: compound at 10 μM; sweetener sucrose

Row | SMILES | EC50 Ratio, Sucrose Enhancement
3 | Cc1nc2cccc(OCC(C)(C)NC(=O)CC(C)C)c2c(N)c1C(=O)O [Compound O5] | 6.0
4 | Cc1nc2cccc(OCC(C)(C)C(=O)NCC(C)C)c2c(N)c1C(=O)O [Compound C6, 4-amino-5-(3-(isobutylamino)-2,2-dimethyl-3-oxopropoxy)-2-methylquino-line-3-carboxylic acid] | 11.0

Same assay, conditions: compound at 50 μM; sweetener fructose

Row | SMILES | EC50 Ratio, Fructose Enhancement
5 | Cc1nc2cccc(OCC(C)(C)NC(=O)CC(C)C)c2c(N)c1C(=O)O [Compound O5] | 2.6

System: not given
Test: not given
Conditions: not given

Row | SMILES | melting point
6 | CCCCNC(=O)C(C)(C)COc1cccc2nc(C)c(C(=O)O)c(N)c12 [Example 15, 4-amino-5-(3-(butylamino)-2,2-dimethyl-3-oxopropoxy)-2-methylquinoline-3-carboxylic acid] | 195 to 199 °C
7 | Cc1nc2cccc(OC3CCN(C(=O)C(C)C)CC3)c2c(N)c1C(=O)O [Example 10, 4-amino-5-((1-isobutyrylpiperidin-4-yl)oxy)-2-methylquinoline-3-carboxylic acid] | 184 to 186 °C
8 | Cc1nc2cccc(OCC(C)(C)NC(=O)CN3CCOCC3)c2c(N)c1C(=O)O [Example 17, 4-amino-2-methyl-5-(2-methyl-2-(2-morpholinoacetamido)propoxy)quinoline-3-carboxylic acid] | 173 to 175 °C
9 | CCNC(=O)C(C)(C)COc1cccc2nc(C)c(C(=O)O)c(N)c12 [Example 12, 4-amino-5-(3-(ethylamino)-2,2-dimethyl-3-oxopropoxy)-2-methylquinoline-3-carboxylic acid] | 168 to 170 °C
10 | Cc1nc2cccc(OCC(C)(C)C(=O)NCC3CC3)c2c(N)c1C(=O)O [Example 14, 4-amino-5-(3-((cyclopropylmethyl)amino)-2,2-dimethyl-3-oxopropoxy)-2-methylquinoline-3-carboxylic acid] | 177 to 179 °C
11 | CNC(=O)[C@H]1CC[C@H](Oc2cccc3nc(C)c(C(=O)O)c(N)c23)CC1 [Example 22, 4-amino-2-methyl-5-(((1,4)-trans-4-(methylcarbamoyl)cyclohexyl)oxy)quinoline-3-carboxylic acid] | 195 to 198 °C
12 | Cc1nc2cccc(OCC(C)(C)NC(=O)C3CCOCC3)c2c(N)c1C(=O)O [Example 7, 4-amino-2-methyl-5-(2-methyl-2-(tetrahydro-2H-pyran-4-carboxamido)-propoxy)quinoline-3-carboxylic acid] | 170 to 173 °C
13 | Cc1nc2cccc(OCC(C)(C)C(=O)NC3CCC3)c2c(N)c1C(=O)O [Example 3, 4-amino-5-(3-(cyclobutylamino)-2,2-dimethyl-3-oxopropoxy)-2-methylquino-line-3-carboxylic acid] | 183 to 187 °C
14 | CCC(CC)NC(=O)C(C)(C)COc1cccc2nc(C)c(C(=O)O)c(N)c12 [Example 16, 4-amino-5-(2,2-dimethyl-3-oxo-3-(pentan-3-ylamino)propoxy)-2-methyl-quinoline-3-carboxylic acid] | 172 to 174 °C
15 | Cc1nc2cccc(OCC(C)(C)C(=O)NCC3CCC3)c2c(N)c1C(=O)O [Example 19, 4-amino-5-(3-((cyclobutylmethyl)amino)-2,2-dimethyl-3-oxopropoxy)-2-methylquinoline-3-carboxylic acid] | 170 to 172 °C
16 | Cc1nc2cccc(OCC(C)(C)NC(=O)C(C)C)c2c(N)c1C(=O)O [Example 6, 4-amino-5-(2-isobutyramido-2-methylpropoxy)-2-methylquinoline-3-carboxylic acid] | 184 to 186 °C
17 | CCC(=O)NC(C)(C)COc1cccc2nc(C)c(C(=O)O)c(N)c12 [Example 8, 4-amino-2-methyl-5-(2-methyl-2-propionamidopropoxy)quinoline-3-carboxylic acid] | 189 to 193 °C

More lines, now with the values ahead:

Row | melting point | SMILES
18 | 186 to 190 °C | Cc1nc2cccc(OCC(C)(C)NC(=O)C3CCC3)c2c(N)c1C(=O)O [Example 9, 4-amino-5-(2-(cyclobutanecarboxamido)-2-methylpropoxy)-2-methylquino-line-3-carboxylic acid]
19 | 175 to 178 °C | Cc1nc2cccc(OCC(C)(C)NC(=O)CC3CCOCC3)c2c(N)c1C(=O)O [Example 13, 4-amino-2-methyl-5-(2-methyl-2-(2-(tetrahydro-2H-pyran-4-yl)acetamido)-propoxy)quinoline-3-carboxylic acid]
20 | 195 to 198 °C | Cc1nc2cccc(OCC(C)(C)NC(=O)CC(C)C)c2c(N)c1C(=O)O [Example 5, 4-amino-2-methyl-5-(2-methyl-2-(3-methylbutanamido)propoxy)quinoline-3-carboxylic acid]
21 | 176 to 179 °C | Cc1nc2cccc(OCC(C)(C)C(=O)NCC(C)C)c2c(N)c1C(=O)O [Compound C6, 4-amino-5-(3-(isobutylamino)-2,2-dimethyl-3-oxopropoxy)-2-methylquino-line-3-carboxylic acid]
22 | 227 to 229 °C | Cc1nc2cccc(OCC(C)(C)C(=O)NC3CC3)c2c(N)c1C(=O)O [Example 2, 4-amino-5-(3-(cyclopropylamino)-2,2-dimethyl-3-oxopropoxy)-2-methyl-quinoline-3-carboxylic acid]
23 | 183 to 185 °C | Cc1nc2cccc(O[C@H]3CC[C@H](NC(=O)C(C)C)CC3)c2c(N)c1C(=O)O [Example 4, 4-amino-5-(((1,4)-trans-4-isobutyramidocyclohexyl)oxy)-2-methylquinoline-3-carboxylic acid]
24 | 168 to 170 °C | CCC(=O)N1CCC(COc2cccc3nc(C)c(C(=O)O)c(N)c23)CC1 [Example 21, 4-amino-2-methyl-5-((1-propionylpiperidin-4-yl)methoxy)quinoline-3-carboxylic acid]
